Eight compounds from PMC9354638, “Targeting p21-activated kinase 4 (PAK4) with pyrazolo[3,4-d]pyrimidine derivative SPA7012 attenuates hepatic ischaemia-reperfusion injury in mice” (Journal of Enzyme Inhibition and Medicinal Chemistry, 2022) can be followed below.

This test deals with T1, PAK4 (Homo sapiens, UniProt O96013).
T1 construct: purchased Reaction Biology Corporation (Malvern, PA, USA)
As to the kind of experiment: HotSpot kinase assay (Reaction Biology Corp.), PAK4 enzyme inhibition. The conditions noted are these: ATP 10 μM; for inhibition at 20 µM: relative percentage inhibition at 20 μM of compounds with staurosporine, read-out: PAK4 enzyme inhibition % inhibitory activity; for IC50: 10-dose, 3-fold serial dilution starting at 100 μM. In kind it is biochemical. The procedure: To examine the enzyme activity, HotSpot kinase assay was performed at Reaction Biology Corporation (Malvern, PA, USA). The kinase and substrate pairs were prepared in reaction buffer: 20 mM HEPES at pH 7.5, 10 mM MgCl2, 1 mM EGTA, 0.02% Brij 35, 0.02 mg/mL BSA, 0.1 mM Na3VO4, 2 mM DTT, and 1% DMSO. Compounds were added into the kinase reaction mixture and incubated for 20 min. Then, ^32 P-ATP was introduced to the mixture to initiate the reaction carried out at 10 μM of ATP concentration. After 2 h at room temperature, the mixture was spotted onto P81 ion exchange paper and kinase activity was then evaluated utilising the filter-binding method. Compounds were tested for single dose enzyme inhibition at a concentration of 20 μM. For the control compound, staurosporine was tested in a 10-dose IC50 mode. To determine the IC50 value, the compounds were tested for 10-doses with 3-fold serial dilution starting at 100 μM.
Synthesised compounds were evaluated for their in vitro PAK4 enzyme inhibitory activities. In vitro kinase assays were performed using HotSpot kinase assays for relative enzyme inhibitory activity at a single concentration (20 μM) and IC50 assessment at an ATP concentration of 10 μM (Figure 1(B)). […] For the allosteric pocket binder, cyclohexyl group (SPA7012) was preferable to the smaller dimethyl (SPA7011) or hydroxymethyl group (SPA7013), and the aromatic ring (SPA7014) reduced activity compared to the saturated ring (SPA7012). In vitro enzyme IC50 values appeared in the order of SPA7012, SPA7017, and SPA7016. […] Molecular docking analysis was performed on the human PAK4 catalytic domain structure complexed with GNE-2861 (PDB code: 4O0V). The binding pose of SPA7012 overlapped well with the crystal structure of GNE-2861, with the allosteric binder properly positioned in the specific back pocket. The oxygen atom in the tertiary alcohol of the hydrophobic allosteric binder formed hydrogen bonds with the backbone of Phe459 and the side chain of Glu366 (Figure 1(D)). The amine group and nitrogen atom in the pyrazolo[3,4-d]pyrimidine core scaffold also formed hydrogen bonds with Lue398 at the hinge region. Finally, SPA7012 was decided as a lead compound for further examination with satisfactory potency and subtype selectivity.

T1 sequence (O96013 whole entry): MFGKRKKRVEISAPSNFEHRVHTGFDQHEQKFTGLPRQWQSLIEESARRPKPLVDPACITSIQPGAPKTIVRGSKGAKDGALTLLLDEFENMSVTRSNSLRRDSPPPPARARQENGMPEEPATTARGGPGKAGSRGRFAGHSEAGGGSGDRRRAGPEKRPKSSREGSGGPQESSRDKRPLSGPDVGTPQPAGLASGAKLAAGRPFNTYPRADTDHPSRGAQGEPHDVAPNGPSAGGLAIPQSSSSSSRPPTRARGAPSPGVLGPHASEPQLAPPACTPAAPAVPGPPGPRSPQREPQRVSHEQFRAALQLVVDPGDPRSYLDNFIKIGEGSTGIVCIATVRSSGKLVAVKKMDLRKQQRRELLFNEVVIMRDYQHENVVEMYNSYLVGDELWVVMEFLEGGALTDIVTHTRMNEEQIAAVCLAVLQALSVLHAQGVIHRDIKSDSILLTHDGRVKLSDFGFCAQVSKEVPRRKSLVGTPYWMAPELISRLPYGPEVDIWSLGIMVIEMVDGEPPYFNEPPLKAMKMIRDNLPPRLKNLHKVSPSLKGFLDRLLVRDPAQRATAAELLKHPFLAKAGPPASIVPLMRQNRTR

Usually inhibition stands for the share of the control response that was lost under treatment. As for `Cc1nn(-c2cccc(C#CC(C)(O)CO)c2)c2ncnc(N)c12` (centres unmarked) [Compound 14c, 4–(3-(4-Amino-3-methylpyrazolo[3,4-d]pyrimidin-1-yl)phenyl)-2-methylbutyn-1,2-diol], the inhibition at 20 µM was found to be 36%. Still for that read-out and setting: under `CC(O)(C#Cc1cccc(-n2c3ccccc3c3c(N)nccc32)c1)CO` (centres unmarked) [Compound 10c, 4–(3-(1-Aminopyrido[4,3-b]indol-5-yl)phenyl)-2-methylbutyn-1,2-diol] stands 29%; under `Cc1nn(-c2cccc(C#CC(C)(C)O)c2)c2ncnc(N)c12` [Compound 14a, 4–(3–(4-Amino-3-methylpyrazolo[3,4-d]pyrimidin-1-yl)phenyl)-2-methylbutyn-2-ol], 60%. The term IC50 denotes the point on the concentration scale where inhibition reaches its midpoint. The low end stands for greater potency, the high end for weaker potency. In the case of `Nc1ncnc2c1c(CCCN1CCOCC1)nn2-c1cccc(C#CC2(O)CCCCC2)c1` [Compound 18a, (3–(4-Amino-3–(3-morpholin-4-ylpropyl)pyrazolo[3,4-d]pyrimidin-1-yl)phenylethynyl)cyclohexanol], the IC50 was 9.92 µM and the inhibition at 20 µM was 88%. As for `CC(C)(O)C#Cc1cccc(-n2c3ccccc3c3c(N)nccc32)c1` [Compound 10a, 4–(3–(1-Aminopyrido[4,3-b]indol-5-yl)phenyl)-2-methylbutyn-2-ol], the inhibition at 20 µM is 32%. On the same count and under the same terms, under `Cc1nn(-c2cccc(C#CC(C)(O)c3ccccc3)c2)c2ncnc(N)c12` (centres unmarked) [Compound 14d, 4–(3-(4-Amino-3-methylpyrazolo[3,4-d]pyrimidin-1-yl)phenyl)-2-phenylbutyn-2-ol] stands 65%. As for `Nc1nccc2c1c1ccccc1n2-c1cccc(C#CC2(O)CCCCC2)c1` [Compound 10b, 3-(1-Aminopyrido[4,3-b]indol-5-yl)phenylethynylcyclohexan-1-ol], half-maximal inhibition (IC50) was put at 34 µM and the inhibition at 20 µM was determined as 54%.

For `Nc1ncnc2c1c(CCCN1CCCCC1)nn2-c1cccc(C#CC2(O)CCCCC2)c1` [Compound 18b, (3-[4-Amino-3–(3-piperidin-1-ylpropyl)pyrazolo[3,4-d]pyrimidin-1-yl]phenylethynyl)cyclohexanol], the IC50 worked out at 4.41 µM and the inhibition at 20 µM came to 90%.
